Test results taken from the supplement of paper PMC10307832.

Legend:
Test in all cases: relative viability (nuclei count vs DMSO), 5 days (fraction); higher = more cells survive
[1] = compound: CC1=C(C(=O)N2C=CSC2=N1)CCN3CCC(=C(C4=CC=CC=C4)C5=CC=C(C=C5)F)CC3 + COc1cc2c(Oc3ccc(NC(=O)C4(C(=O)Nc5ccc(F)cc5)CC4)cc3F)ccnc2cc1OCCCN1CCOCC1 [Foretinib] (partner 0.25 µM)
Procedure, shortened: (§1)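 Medians of duplicate plates are given as relative viability. That measure is the nuclei count in treated wells divided by the count in vehicle wells. Counts were taken on 4× images of lung cancer cell lines in 1536-well plates, 5 days after pin-tool dosing the day after seeding with one drug alone or a fixed anchor-drug dose plus five library-drug doses (not always all listed) in √10 steps.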

[2] = compound: CC1=C(C(=O)N2C=CSC2=N1)CCN3CCC(=C(C4=CC=CC=C4)C5=CC=C(C=C5)F)CC3 + Nc1nc2[nH]cc(CCc3ccc(C(=O)N[C@@H](CCC(=O)O)C(=O)O)cc3)c2c(=O)[nH]1 [Pemetrexed] (partner 0.2 µM)
Procedure, shortened: as §1

[3] = compound: CC1=C(C(=O)N2C=CSC2=N1)CCN3CCC(=C(C4=CC=CC=C4)C5=CC=C(C=C5)F)CC3 + COc1cccc2cc(-c3nc([C@H]4CC[C@H](C(=O)O)CC4)n4ncnc(N)c34)[nH]c12 [OSI-027] (partner 0.5 µM)
Procedure, shortened: as §1

[4] = compound: CC1=C(C(=O)N2C=CSC2=N1)CCN3CCC(=C(C4=CC=CC=C4)C5=CC=C(C=C5)F)CC3 + NC(=O)Nc1cc(-c2cccc(F)c2)sc1C(=O)N[C@H]1CCCNC1 [AZD7762] (partner 0.2 µM)
Procedure, shortened: as §1

Cell Line	relative viability ([1]; first compound 0.08 µM)	relative viability ([1]; first compound 0.253 µM)	relative viability ([1]; first compound 0.8 µM)	relative viability ([1]; first compound 2.53 µM)	relative viability ([1]; first compound 8 µM)	relative viability ([2]; first compound 0.08 µM)	relative viability ([2]; first compound 0.253 µM)	relative viability ([2]; first compound 0.8 µM)	relative viability ([2]; first compound 2.53 µM)	relative viability ([2]; first compound 8 µM)	relative viability ([3]; first compound 0.08 µM)	relative viability ([3]; first compound 0.253 µM)	relative viability ([3]; first compound 0.8 µM)	relative viability ([3]; first compound 2.53 µM)	relative viability ([3]; first compound 8 µM)	relative viability ([4]; first compound 0.08 µM)	relative viability ([4]; first compound 0.253 µM)	relative viability ([4]; first compound 0.8 µM)	relative viability ([4]; first compound 2.53 µM)	relative viability ([4]; first compound 8 µM)
HOP-62	1.17	0.995	1.14	1.06	0.705	0.335	0.315	0.306	0.336	0.12	0.92	0.771	0.837	0.824	0.488	0.445	0.51	0.522	0.534	0.323
NCI-H1993	0.701	0.677	0.757	0.915	0.682	0.617	0.622	0.645	0.671	0.468	0.611	0.498	0.546	0.58	0.626	0.501	0.632	0.726	0.73	0.63
NCI-H460	0.782	0.796	1.16	1.13	0.232	0.0657	0.059	0.0626	0.0637	0.0907	0.951	0.633	0.605	0.712	0.191	0.769	0.604	0.712	0.6	0.482
NCI-H2126	1.08	1.1	1.19	1.22	0.927	0.587	0.758	0.713	0.721	0.511	0.719	0.753	0.699	0.779	0.792	1.07	0.961	1.03	1.04	0.705
NCI-H650	0.994	1.11	1.13	1.17	1.06	1.02	0.957	0.923	1.05	0.871	0.513	0.489	0.551	0.504	0.531	1.07	0.998	0.94	1.04	0.805
201T	1.1	1.26	1.16	1.25	0.864	0.304	0.335	0.335	0.342	0.24	0.579	0.663	0.81	0.842	0.695	0.718	0.513	0.579	0.621	0.586
NCI-H358	0.568	0.665	0.695	0.87	0.483	0.204	0.196	0.16	0.179	0.162	0.681	0.666	0.666	1.13	0.469	0.555	0.487	–	0.462	0.477
NCI-H1755	0.907	0.888	0.892	0.912	0.762	0.456	0.437	0.41	0.405	0.38	0.744	0.861	0.664	0.68	0.672	0.465	0.446	0.434	0.508	0.418
NCI-H1355	1.09	0.94	1.08	0.893	0.661	1.09	1.04	1.02	1.1	0.97	0.377	0.405	0.355	0.421	0.424	1.02	0.846	0.822	0.815	0.595
LCLC-103H	0.864	0.567	0.732	0.761	0.496	0.542	0.464	0.437	0.437	0.49	0.567	0.605	0.401	0.462	0.411	0.923	0.766	0.781	0.822	0.655
LOU-NH91	0.91	0.926	1.03	0.942	0.906	0.303	0.3	0.438	0.387	0.346	0.734	0.769	0.767	0.76	0.642	0.763	0.714	0.833	0.84	0.691
NCI-H2085	0.882	1.05	1.07	1.05	0.7	0.966	0.964	0.759	0.955	0.883	0.818	0.704	0.87	0.799	0.464	1.06	1.29	0.92	1.03	0.89
EKVX	0.671	1.04	0.815	0.855	0.677	0.366	0.382	0.436	0.432	0.35	0.46	0.708	0.777	0.744	0.545	0.602	0.753	0.808	0.553	0.641
NCI-H1651	0.747	0.884	0.912	0.822	0.558	0.756	0.611	0.545	0.644	0.574	0.71	0.768	0.698	0.697	0.461	0.438	0.467	0.472	0.467	0.304
EPLC-272H	0.658	0.622	0.657	0.677	0.576	0.335	–	0.333	0.288	0.416	0.26	0.282	0.316	0.262	0.235	0.45	0.198	0.182	0.211	0.179
RERF-LC-KJ	0.794	0.92	0.917	0.846	0.561	0.502	0.476	0.439	0.486	0.481	0.411	0.583	0.546	0.523	0.497	0.636	0.936	1.15	0.945	0.584

Cell Line	relative viability ([1]; first compound 0.08 µM)	relative viability ([1]; first compound 0.253 µM)	relative viability ([1]; first compound 0.8 µM)	relative viability ([1]; first compound 2.53 µM)	relative viability ([1]; first compound 8 µM)	relative viability ([2]; first compound 0.08 µM)	relative viability ([2]; first compound 0.253 µM)	relative viability ([2]; first compound 0.8 µM)	relative viability ([2]; first compound 2.53 µM)	relative viability ([2]; first compound 8 µM)	relative viability ([3]; first compound 0.08 µM)	relative viability ([3]; first compound 0.253 µM)	relative viability ([3]; first compound 0.8 µM)	relative viability ([3]; first compound 2.53 µM)	relative viability ([3]; first compound 8 µM)	relative viability ([4]; first compound 0.08 µM)	relative viability ([4]; first compound 0.253 µM)	relative viability ([4]; first compound 0.8 µM)	relative viability ([4]; first compound 2.53 µM)	relative viability ([4]; first compound 8 µM)
NCI-H2347	–	0.835	0.523	1.16	0.837	0.398	0.482	0.441	0.454	0.409	0.371	0.425	0.406	0.332	0.349	0.603	0.692	0.773	0.895	0.553
NCI-H838	0.827	1.03	1.04	1.12	0.9	0.254	0.252	0.259	0.246	0.223	0.445	0.339	0.37	0.454	0.352	0.839	0.904	0.992	0.958	0.806
ChaGo-K-1	0.884	1.04	1.04	0.942	0.548	0.277	0.27	0.259	0.267	0.236	0.595	0.636	0.533	0.584	0.489	0.763	0.919	0.925	0.928	0.694
NCI-H1666	0.924	0.956	0.949	1.04	0.798	0.838	0.853	0.884	0.89	0.754	0.872	0.913	0.731	0.8	0.606	0.787	0.819	0.847	0.946	0.673
NCI-H441	1.07	0.968	1.05	0.976	0.84	0.289	0.255	0.252	0.296	0.254	0.505	0.582	0.576	0.754	0.416	0.859	1.12	1.23	1.07	0.671
NCI-H596	0.797	0.936	0.885	1.1	0.519	0.49	0.511	0.488	0.584	0.466	0.668	0.788	0.746	0.827	0.41	1.18	0.913	1.2	1.08	0.965
H3255	0.818	0.891	0.734	0.886	0.707	0.554	0.532	0.552	0.565	0.552	0.474	0.572	0.65	0.594	0.512	0.832	0.929	0.907	0.955	0.72
NCI-H2087	0.989	1.2	1.17	1.24	0.528	0.634	0.686	0.595	0.682	0.599	0.364	0.587	0.696	0.566	0.237	1.21	1.36	1.58	1.24	0.506
BEN	0.708	0.74	0.639	0.677	0.595	0.928	0.753	0.715	0.942	0.753	0.294	0.311	0.283	0.318	0.278	0.732	0.677	0.638	0.638	0.651
NCI-H1975	1.04	0.664	0.965	1.21	0.591	0.292	0.265	0.312	0.291	0.236	0.912	0.673	0.679	0.836	0.437	0.658	0.76	0.769	0.738	0.618
PC-3 [JPC-3]	1.01	0.885	1.05	1.17	0.93	1.16	–	0.995	1.01	1.02	0.783	0.662	0.831	0.772	0.633	0.768	–	0.815	0.78	0.736
HARA	1.19	0.98	0.956	0.942	0.649	0.253	0.252	0.253	0.252	0.228	0.379	0.577	0.534	0.454	0.275	0.371	0.347	0.281	0.296	0.303
LXF-289	1	1.01	1.01	1.01	0.879	0.931	0.883	0.871	0.901	0.76	0.784	0.79	0.779	0.884	0.55	0.789	1.22	1.14	1.13	0.515
NCI-H647	1.03	1.23	1.24	1.2	0.65	0.185	0.149	0.185	0.166	0.184	0.581	0.66	0.652	0.72	0.316	0.558	0.449	0.37	0.426	0.234
HCC-78	0.547	0.522	0.513	0.534	0.522	0.798	0.867	0.935	0.923	0.66	0.352	0.349	0.406	0.356	0.326	0.691	0.71	0.58	0.662	0.567
LCLC-97TM1	1.01	1.01	1.02	0.92	0.958	0.196	0.19	0.173	0.198	0.196	0.585	0.585	0.507	0.487	0.369	0.348	0.246	0.288	0.285	0.228
